The target of one test is T1, A2A receptor (Homo sapiens, UniProt P29274).
T1 construct: host or cells: HEK-293
As to the kind of experiment: A2aR antagonism IC50, cAMP TR-FRET in HEK-293 cells, high concentration of adenosine (30 μM).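 Also: compounds added 10 min before adenosine, then 30 min stimulation at room temperature in buffer with 100 µM rolipram and 30 µM EHNA, signal read 1 h after detection reagents.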 The format is cell-based. Particulars: HEK-293 cells expressing A2A receptor; agonist adenosine 30 μM; 2% HSA; inhibition of cAMP; read-out: A2AR IC50 (nM) (@30 μM Adenosine).

The target in another test is T2, A2B receptor (Homo sapiens, UniProt P29275).
T2 sequence (P29275 1-332): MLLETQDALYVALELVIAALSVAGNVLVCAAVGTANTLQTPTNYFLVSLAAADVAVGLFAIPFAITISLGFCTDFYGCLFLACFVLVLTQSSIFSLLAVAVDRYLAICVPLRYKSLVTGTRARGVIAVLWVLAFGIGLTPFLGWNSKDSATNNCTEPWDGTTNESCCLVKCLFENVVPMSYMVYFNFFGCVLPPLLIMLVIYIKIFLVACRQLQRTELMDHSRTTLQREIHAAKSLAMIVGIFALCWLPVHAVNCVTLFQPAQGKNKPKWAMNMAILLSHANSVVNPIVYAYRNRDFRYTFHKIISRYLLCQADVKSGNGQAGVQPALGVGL
As to the kind of experiment: A2bR antagonism IC50, cAMP TR-FRET in HEK-293 cells, high concentration of adenosine (30 μM).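 Also: compounds preincubated 10 min with cells, then adenosine stimulation 30 min at room temperature in buffer with Rolipram 100 µM and EHNA 30 µM, TR-FRET read after 1 h.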 Particulars: A2BR IC50 (nM) (@30 μM Adenosine), HEK-293 cells expressing A2B receptor; agonist adenosine 30 μM; 2% HSA; inhibition of cAMP.

The text below walks through data of patent US12577247B2 (BUGWORKS RESEARCH, INC., priority 2021, dated 2026).

T1 sequence (P29274 whole entry): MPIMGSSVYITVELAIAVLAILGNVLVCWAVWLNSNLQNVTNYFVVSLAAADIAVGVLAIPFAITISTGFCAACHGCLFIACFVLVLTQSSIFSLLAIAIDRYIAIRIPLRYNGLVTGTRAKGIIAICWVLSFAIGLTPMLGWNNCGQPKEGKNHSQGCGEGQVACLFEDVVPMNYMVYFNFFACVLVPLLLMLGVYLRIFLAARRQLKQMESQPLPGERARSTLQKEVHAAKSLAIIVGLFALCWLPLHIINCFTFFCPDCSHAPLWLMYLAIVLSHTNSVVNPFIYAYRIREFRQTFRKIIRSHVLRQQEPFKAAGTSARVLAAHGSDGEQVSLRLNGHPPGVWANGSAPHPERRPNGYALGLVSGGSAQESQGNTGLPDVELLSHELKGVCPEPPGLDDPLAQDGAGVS
Method for A2B receptor: A Time-Resolved Fluorescence Energy Transfer (TR-FRET) assay was used to show the inhibition of this cAMP production in HEK cells upon treatment with compounds of the Formula I of the present disclosure.
HEK-293 cells expressing A2A receptor (#ES-011-C) or A2B receptor (#ES 013-C) were obtained from PerkinElmer. Cells were maintained in DMEM medium supplemented with 10% FBS and 200 μg/mL of G418 at 37° C. and 5% CO2. The cells were cultured in antibiotic free medium for a period of 16-20 hours prior to the assay. All subsequent steps of the assay are performed at room temperature (22-24° C.). […] About 1500 cells per well were pre-incubated for 10 minutes with the compounds of the present invention before adding the agonist Adenosine at a high concentration (30 μM) for a total stimulation time of 30 minutes. […] The assays were conducted in a stimulation buffer containing 1×DMEM, 5 mM HEPES, 2% Human serum albumin (HSA), 100 μM Rolipram and 30 μM erythro-9-(2-hydroxy-3-nonyl) adenine (EHNA). Serial dilutions of compounds were made in stimulation buffer to achieve a final concentration of high micromolar in a reaction volume of 10 μL. The total reaction volume was 10 μL (5 μL of cells, 2.5 μL of antagonist and 2.5 μL of agonist). […] The stimulation was ended, and the reaction completed by adding 5 μL of 4× Eu-cAMP tracer working solution and 5 μL of 4× ULight-anti-cAMP working solution. The TR FRET signal was measured after 1-hour incubation using a Tecan M1000 or a PerkinElmer Victor Nivo plate reader.

On to `CCc1cnn2c(N)c(C#N)c(NCCc3ccn(C4(CO)CC4)n3)nc12` [Example 71, 7-amino-3-ethyl-5-((2-(1-(1-(hydroxymethyl)cyclopropyl)-1H-pyrazol-3-yl)ethyl)amino) pyrazolo[1,5-a] pyrimidine-6-carbonitrile], for which the IC50 stood at 158 nM at A2A receptor and 2820 nM at A2B receptor. Regarding `CCc1c(C)nn2c(N)c(C#N)c(NCCc3cccn(CCCN)c3=O)nc12` [Example 136, 7-amino-5-((2-(1-(3-aminopropyl)-2-oxo-1,2-dihydropyridin-3-yl)ethyl)amino)-3-ethyl-2-methylpyrazolo[1,5-a]pyrimidine-6-carbonitrile], the IC50 came out at 506 nM at A2A receptor and 2610 nM on A2B receptor.

`CCCc1c(C)nn2c(N)c(C#N)c(NCCc3cccc(CO)n3)nc12` [Example 157, 7-amino-5-((2-(6-(hydroxymethyl)397yridine-2-yl)ethyl)amino)-2-methyl-3-propylpyrazolo[1,5-a]pyrimidine-6-carbonitrile]: the 50% inhibitory concentration (IC50) was determined as 1670 nM at A2A receptor and 2930 nM on A2B receptor.

For `CCc1c(C)nn2c(N)c(C#N)c(NCCc3cccc(C(O)C(F)(F)F)n3)nc12` (centres unmarked) [Example 135, 7-amino-3-ethyl-2-methyl-5-((2-(6-(2,2,2-trifluoro-1-hydroxyethyl)pyridine-2-yl)ethyl)amino) pyrazolo[1,5-a]pyrimidine-6 carbonitrile], the figures for the IC50 at A2A receptor and at A2B receptor were 1310 nM and 2220 nM, respectively. As to `CCc1c(C)nn2c(N)c(C#N)c(NCCc3cccn(CCCO)c3=O)nc12` [Example 113, 7-amino-3-ethyl-5-((2-(1-(3-hydroxypropyl)-2-oxo-1,2-dihydropyridin-3-yl)ethyl)amino)-2-methylpyrazolo[1,5-a]pyrimidine-6-carbonitrile], the IC50 on A2A receptor is 187 nM; on A2B receptor, 1050 nM. The matching figures for `CCc1c(C)nn2c(N)c(C#N)c(NCCc3ccn(C4COCC4CO)n3)nc12` (single isomer, unassigned; (+)) [Example 122a, (+)-7-amino-3-ethyl-5-((2-(1-(4-(hydroxymethyl)tetrahydrofuran-3-yl)-1H-pyrazol-3-yl)ethyl)amino)-2-methyl pyrazolo[1,5-a]pyrimidine-6-carbonitrile]: 289 nM and 707 nM. On the same counts, the results for `CCCc1c(C)nn2c(N)c(C#N)c(NCCc3ccn(C4COCC4CO)n3)nc12` (single isomer, unassigned; (+)) [Example 160a, (+) 7-amino-5-((2-(1-(4-(hydroxymethyl)tetrahydrofuran-3-yl)-1H-pyrazol-3-yl)ethyl)amino)-2-methyl-3-propylpyrazolo[1,5-a]pyrimidine-6-carbonitrile] are 579 nM and 1930 nM. In the case of `CCc1c(C)nn2c(N)c(C#N)c(NCCc3cccn(CC4CC(O)C4)c3=O)nc12` (centres unmarked) [Example 128, 7-amino-3-ethyl-5-((2-(1-((3-hydroxycyclobutyl)methyl)-2-oxo-1,2-dihydropyridin-3-yl)ethyl)amino)-2-methylpyrazolo[1,5-a]pyrimidine-6-carbonitrile], the IC50 on A2A receptor is 368 nM; on A2B receptor, 1110 nM.

With `Cc1nn2c(N)c(C#N)c(NCCc3ccn(C4COCC4CO)n3)nc2c1C` (single isomer, unassigned; (-)) [Example 133b, (−)-7-amino-5-((2-(1-(4-(hydroxymethyl)tetrahydrofuran-3-yl)-1H-pyrazol-3-yl)ethyl)amino)-2,3-dimethylpyrazolo[1,5-a]pyrimidine-6-carbonitrile], the IC50 on A2A receptor was found to be 136 nM; on A2B receptor, 6070 nM. The matching figures for `CCc1c(C)nn2c(N)c(C#N)c(NCCc3cccn(CC[S+](C)[O-])c3=O)nc12` (single isomer, unassigned; (+)) [Example 144a, (+)7-amino-3-ethyl-2-methyl-5-((2-(1-(2-(methylsulfinyl)ethyl)-2-oxo-1,2-dihydropyridin-3-yl)ethyl)amino) pyrazolo[1,5-a]pyrimidine-6-carbonitrile]: 327 nM and 821 nM. Take `CCc1c(C)nn2c(N)c(C#N)c(NCCc3ccnn3CCCO)nc12` [Example 110, 7-amino-3-ethyl-5-((2-(1-(3-hydroxypropyl)-1H-pyrazol-5-yl)ethyl)amino)-2-methylpyrazolo[1,5-a]pyrimidine-6-carbonitrile]: the concentration for half-maximal inhibition (IC50) at A2A receptor and on A2B receptor was greater than 15000 nM throughout. For `Cc1nn2c(N)c(C#N)c(NCCc3ccn(C4(CCO)CC4)n3)nc2c1Cl` [Example 112, 7-amino-3-chloro-5-((2-(1-(1-(2-hydroxyethyl)cyclopropyl)-1H-pyrazol-3-yl)ethyl)amino)-2-methylpyrazolo[1,5-a] pyrimidine-6-carbonitrile], the IC50 at A2A receptor was determined as 84 nM; at A2B receptor, 10800 nM. Turning to `Cc1nn2c(N)c(C#N)c(NCCc3ccn(C4(CN)CC4)n3)nc2c1Cl` [Example 68, 7-amino-5-((2-(1-(1-(aminomethyl)cyclopropyl)-1H-pyrazol-3-yl)ethyl)amino)-3-chloro-2-methylpyrazolo[1,5-a]pyrimidine-6-carbonitrile], the IC50 on A2A receptor is 161 nM; on A2B receptor it was 9380 nM. Turning to `Cc1nn2c(N)c(C#N)c(NCCc3ccn(C4CCC4CO)n3)nc2c1C` (racemic) [Example 103, (+−)-7-amino-5-((2-(1-(2-(hydroxymethyl)cyclobutyl)-1H-pyrazol-3-yl)ethyl)amino)-2,3-dimethylpyrazolo[1,5-a] pyrimidine-6-carbonitrile], the IC50 at A2A receptor was 100 nM; at A2B receptor it was 2590 nM.

In the case of `Cc1nn2c(N)c(C#N)c(NCCc3ccn(C4(CNC(=O)CCO)CC4)n3)nc2c1Cl` [Example 99, N-((1-(3-(2-((7-amino-3-chloro-6-cyano-2-methylpyrazolo[1,5-a]pyrimidin-5-yl)amino)ethyl)-1H-pyrazol-1-yl)cyclopropyl)methyl)-3-hydroxypropanamide], the IC50 at A2A receptor is 69 nM; at A2B receptor it was 20000 nM. Take `Cc1nn2c(N)c(C#N)c(NCCc3cccc(CCO)n3)nc2c1C` [Example 152, 7-amino-5-((2-(6-(2-hydroxyethyl)pyridin-2-yl)ethyl)amino)-2,3-dimethylpyrazolo[1,5-a] pyrimidine-6-carbonitrile]: the results for the half-maximal inhibitory concentration (IC50) at A2A receptor and at A2B receptor were 209 nM and 1790 nM, respectively.

In the case of `Cc1nn2c(N)c(C#N)c(NCCc3cccn(CCCN)c3=O)nc2c1Cl` [Example 129, 7-amino-5-((2-(1-(3-aminopropyl)-2-oxo-1,2-dihydropyridin-3-yl)ethyl)amino)-3-chloro-2-methylpyrazolo[1,5-a]pyrimidine-6-carbonitrile], the IC50 at A2A receptor is 237 nM; on A2B receptor it was 5660 nM. On the same counts, the results for `CCc1c(C)nn2c(N)c(C#N)c(NCCc3ccn(C4CC(CO)C4)n3)nc12` (centres unmarked) [Example 123, 7-amino-3-ethyl-5-((2-(1-(3-(hydroxymethyl)cyclobutyl)-1H-pyrazol-3-yl)ethyl)amino)-2-methylpyrazolo[1,5-a]pyrimidine-6-carbonitrile] are 405 nM and 1580 nM.

Turning to `CCn1cccc(CCNc2nc3c(Cl)c(C)nn3c(N)c2C#N)c1=O` [Example 70, 7-amino-3-chloro-5-((2-(1-ethyl-2-oxo-1,2-dihydropyridin-3-yl)ethyl)amino)-2-methylpyrazolo[1,5-a]pyrimidine-6-carbonitrile], the results for the IC50 at A2A receptor and at A2B receptor were 125 nM and greater than 15000 nM, respectively. With `CCc1c(C)nn2c(N)c(C#N)c(NCCc3cc(C)n(C4COCC4CO)n3)nc12` (single isomer, unassigned; (+)) [Example 168], the IC50 on A2A receptor is 90 nM; at A2B receptor it was 650 nM.

`CCc1c(C)nn2c(N)c(C#N)c(NCCc3ccn(C4COCC4CO)n3)nc12` (racemic) [Example 121, (+−)-7-amino-3-ethyl-5-((2-(1-(4-(hydroxymethyl)tetrahydrofuran-3-yl)-1H-pyrazol-3-yl)ethyl)amino)-2-methyl pyrazolo[1,5-a]pyrimidine-6-carbonitrile]: the IC50 on A2A receptor came out at 245 nM; on A2B receptor it was 895 nM.

Consider `Cc1cncc(CCNc2nc3c(C)c(C)nn3c(N)c2C#N)n1` [Example 140, 7-amino-2,3-dimethyl-5-((2-(6-methylpyrazin-2-yl)ethyl)amino) pyrazolo[1,5-a]pyrimidine-6-carbonitrile], for which the values for the IC50 on A2A receptor and at A2B receptor were 6020 nM and greater than 15000 nM, respectively.

On to `Cc1nn2c(N)c(C#N)c(NCCc3ccn(C4COCC4CO)n3)nc2c1C` (racemic) [Example 132, (+−)-7-amino-5-((2-(1-(4-(hydroxymethyl)tetrahydrofuran-3-yl)-1H-pyrazol-3-yl)ethyl)amino)-2,3-dimethylpyrazolo[1,5-a]pyrimidine-6-carbonitrile], for which the IC50 on A2A receptor turned out to be 248 nM. Still for that read-out and setting: in the case of `CCc1c(C)nn2c(N)c(C#N)c(NCCc3cccc(CNCCOC)n3)nc12` [Example 96, 7-amino-3-ethyl-5-((2-(6-(((2-methoxyethyl)amino)methyl)321yridine-2-yl)ethyl)amino)-2-methylpyrazolo[1,5-a]pyrimidine-6-carbonitrile] it was 456 nM. `Cc1nn2c(N)c(C#N)c(NCCc3cccc(CNCCO)n3)nc2c1C` [Example 105, 7-amino-5-((2-(6-(((2-hydroxyethyl)amino)methyl)pyridin-2-yl)ethyl)amino)-2,3-dimethylpyrazolo[1,5-a]pyrimidine-6-carbonitrile] yielded an IC50 on A2B receptor of 3870 nM.
